Source: patent US9000044B2, “Substituted naphthylacetic acids” (Hoffmann-La Roche Inc., priority 2012, dated 2015)

Columns and labels:
human CRTH2 [1] = target: T1, human CRTH2 (Homo sapiens (Human), UniProt Q9Y5Y4); experiment: Human CRTH2 Receptor Binding Assay (whole cell, [3H]ramatroban); details: CHO-K1 cells expressing human CRTH2 and G-alpha16; 20 nM [3H]ramatroban; 1 hour, room temperature
Description: Human CRTH2 Receptor Binding Assay
A whole cell receptor binding assay using [^3H]ramatroban as the competing radioactive ligand was employed to evaluate the compound binding activity to human CRTH2. The radioactive ligand [^3H]ramatroban was synthesized according to Sugimoto et. al. (Eur. J. Pharmacol. 524, 30-37, 2005) to a specific activity of 42 Ci/mmol.
A cell line stably expressing human CRTH2 was established by transfecting CHO-K1 cells with two mammalian expression vectors that harbored human CRTH2 and G-alpha16 cDNAs, respectively, using FuGene® 6 transfection reagent (from Roche). Stable clones expressing CRTH2 were selected by staining each clone with BM16 (BD Pharmingen™ from BD Biosciences, a division of Becton, Dickinson and Company), which is a rat monoclonal antibody to human CRTH2. The cells were maintained as monolayer cultures in Ham's F-12 medium containing 10% fetal bovine serum, 100 units/mL penicillin, 100 μg/mL streptomycin, 2 mM glutamine, 0.5 mg/mL G418 (geneticin) for CRTH2, and 0.2 mg/mL hygromycin-B (for G-alpha 16). For whole cell receptor binding assay, the monolayer cells were rinsed once with PBS (phosphate buffered saline), dissociated using ethylenediaminetetraacetate (Versene™ EDTA from Lonza Inc.), and suspended in PBS containing 10 mM MgCl2 and 0.06% BSA (bovine serum albumin) at 1.5×10^6 cells/mL.
The binding reactions (0.2 mL) were performed in 96-well plates at room temperature in PBS containing 1.5×10^5 cells, 10 mM MgCl2, 0.06% BSA, 20 nM [^3H]ramatroban, and test compound at various concentrations. After 1 hour of binding reactions, the cells were harvested on GF™/B filter microplates (microtiter plates with embedded glass fiber from PerkinElmer, Inc.) and washed 5 times with PBS using a Filtermate™ Harvester (a cell harvester that harvests and washes cells from microplates from PerkinElmer, Inc.). The radioactivities bound to the cells were determined using a microplate scintillation counter (TopCount® NXT, from PerkinElmer, Inc.) after adding 50 μL of Microscint™ 20 scintillation fluid (from PerkinElmer, Inc.) to each well of the filter plates. The radioactivity from non-specific binding was determined by replacing compound with 10 μM of 15(R)-15-methyl PGD2 (from Cayman Chemical Company) in the reaction mixtures. The radioactivity bound to the cells in the absence of compound (total binding) was determined by replacing compound with 0.25% of DMSO (dimethyl sulfoxide) in the reaction mixture. Specific binding data were obtained by subtracting the radioactivity of non-specific binding from each binding data.
The IC50 value is defined as the concentration of the tested compound that is required for 50% inhibition of total specific binding. In order to calculate the IC50 value, the percent inhibition data were determined for 7 concentrations for each compound. The percent inhibition for a compound at each concentration was calculated according to the following formula, [1-(specific binding in the presence of compound)/(total specific binding)]×100. The IC50 value was then obtained by fitting the percent inhibition data to a sigmoidal dose-response (4 parameter logistic) model in the XLfit® software Excel add-in program [from ID Business Solutions Ltd., model 205, where F(x)=(A+(B−A)/(1+((C/x)^D)))].

human CRTH2 [2] = target: T1, human CRTH2; experiment: Calcium Flux Assay Using Fluorometric Imaging Plate Reader (FLIPR); format: cell-based; details: CHO-K1 cells with G-alpha 16 and human CRTH2; inhibition of DK-PGD2 ligand-induced Ca2+ flux
Protocol: Calcium Flux Assay Using Fluorometric Imaging Plate Reader (FLIPR)
Cell Culture Conditions: CHO-K1 cells previously transfected with G-alpha 16 were subsequently transfected with the human CRTH2 receptor and the neomycin resistance gene. Following selection in 800 μg/mL G418 (geneticin), individual clones were assayed for their receptor expression based on staining with an anti human CRTH2 IgG, followed by assaying for their response to 13,14-dihydro-15-keto Prostaglandin D2 (DK-PDG2) (ligand) in the Ca^2+ Flux assay. Positive clones were then cloned by limiting dilution cloning. The transfected cells were cultured in Ham's F-12 medium supplemented with 10% fetal bovine serum, 2 mM glutamine, 100 U/mL penicillin/100 μg/mL streptomycin, 200 μg/mL hygromycin B, and 800 μg/mL G418 (geneticin). Cells were harvested with trypsin-EDTA (trypsin-ethylenediaminetetraacetic acid) and counted using ViaCount® reagent (from Guava Technologies, Inc. which contains two DNA-binding dyes that enable the reagent user to distinguish between viable and non-viable cells). The cell suspension volume was adjusted to 2.5×10^5 cells/mL with complete growth media. Aliquots of 50 μL were dispensed into BD Falcon™ 384 well black/clear microplates (from BD Biosciences, a division of Becton, Dickinson and Company) and the microplates were placed in a 37° C. CO2 incubator overnight. The following day, the microplates were used in the assay.
Loading Buffer containing dye (from the FLIPR® Calcium 3 Assay Kit from Molecular Devices, a division of MDS Analytical Technologies and MDS Inc.) was prepared by dissolving the contents of one bottle into 200 mL Hank's Balanced Salt Solution containing 20 mM HEPES (4-(2-hydroxyethyl)-1-piperazineethanesulfonic acid) and 2.5 mM probenecid. Growth media was removed from the cell plates and 25 μL of Hank's Balanced Salt Solution (HBSS) containing 20 mM HEPES, 0.05% BSA and 2.5 mM probenecid was added to each well followed by 25 μL of diluted dye using a Multidrop dispenser. The plates were then incubated for 1 hour at 37° C.
During the incubation, test compound plates were prepared by adding 90 μL of HBSS/20 mM HEPES/0.005% BSA buffer to the 2 μL of serial diluted compounds. To prepare serial diluted compounds, 20 mM stocks of compounds were dissolved in 100% DMSO. The compound dilution plate was set up as follows: well #1 received 5 μL of compound plus 10 μL of DMSO. Wells 2-10 received 10 μL of DMSO. 5 μL was mixed and transferred from well #1 into well #2. 1:3 serial dilutions were continued out 10 steps. 2 μL of diluted compound was transferred into duplicate wells of a 384 well “assay plate” and then 90 μL of buffer was added.
After incubation, both the cell and “assay plate” plates were brought to the fluorometric imaging plate reader (FLIPR®) and 20 μL of the diluted compounds were transferred to the cell plates by the FLIPR®. Plates were then incubated for 1 hour at room temperature. […] During the assay, fluorescence readings were taken simultaneously from all 384 wells of the cell plate every 1.5 seconds. Five readings were taken to establish a stable baseline, then 20 μL of sample was rapidly (30 μL/sec) and simultaneously added to each well of the cell plate. The fluorescence was continuously monitored before, during and after sample addition for a total elapsed time of 100 seconds. Responses (increase in peak fluorescence) in each well following agonist addition were determined. The initial fluorescence reading from each well, prior to ligand stimulation, was used as a zero baseline value for the data from that well. The responses were expressed as % inhibition of the buffer control.

T1 sequence (Q9Y5Y4 whole entry): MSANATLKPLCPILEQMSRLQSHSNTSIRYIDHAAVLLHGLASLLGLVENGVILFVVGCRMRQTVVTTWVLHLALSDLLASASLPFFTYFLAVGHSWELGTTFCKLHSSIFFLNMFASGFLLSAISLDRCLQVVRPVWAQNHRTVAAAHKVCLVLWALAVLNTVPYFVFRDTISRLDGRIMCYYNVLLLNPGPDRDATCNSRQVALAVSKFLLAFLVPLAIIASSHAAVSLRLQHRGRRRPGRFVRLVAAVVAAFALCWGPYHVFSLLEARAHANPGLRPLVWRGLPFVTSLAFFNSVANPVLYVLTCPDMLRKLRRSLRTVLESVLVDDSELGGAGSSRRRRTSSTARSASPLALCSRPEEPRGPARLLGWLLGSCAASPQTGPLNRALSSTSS

SMILES | IC50 (human CRTH2 [1]) | IC50 (human CRTH2 [2])
CC(=O)Nc1ccc(-c2c(C)c(CC(=O)O)cc3ccc(Cl)cc23)cc1 [Example 64, [4-(4-Acetylamino-phenyl)-6-chloro-3-methyl-naphthalen-2-yl]-acetic acid] | 29.2 nM | 
Cc1c(CC(=O)O)cc2ccc(F)cc2c1-c1ccc(NS(=O)(=O)c2ccccc2)cc1 [Example 59, [4-(4-Benzenesulfonylamino-phenyl)-6-fluoro-3-methyl-naphthalen-2-yl]-acetic acid] | 3.2 nM | 
Cc1c(CC(=O)O)cc2ccc(Cl)cc2c1-c1ccc(NS(=O)(=O)c2ccccc2)cc1 [Example 61, [4-(4-Benzenesulfonylamino-phenyl)-6-chloro-3-methyl-naphthalen-2-yl]-acetic acid] | 3.7 nM | 
Cc1c(CC(=O)O)cc2ccc(Cl)cc2c1-c1ccc(NS(=O)(=O)c2ccccc2C(F)(F)F)cc1 [Example 62, {6-Chloro-3-methyl-4-[4-(2-trifluoromethyl-benzenesulfonylamino)-phenyl]-naphthalen-2-yl}-acetic acid] | 8.9 nM | 
Cc1c(CC(=O)O)cc2ccc(Cl)cc2c1-c1ccc(NC(=O)c2ccccc2)cc1 [Example 65, [4-(4-Benzoylamino-phenyl)-6-chloro-3-methyl-naphthalen-2-yl]-acetic acid] | 6.2 nM | 
Cc1c(CC(=O)O)cc2ccc(Cl)cc2c1-c1ccc(NC(=O)Nc2ccccc2)cc1 [Example 66, {6-Chloro-3-methyl-4-[4-(3-phenyl-ureido)-phenyl]-naphthalen-2-yl}-acetic acid] | 19 nM | 
Cc1ccccc1S(=O)(=O)c1ccc(-c2c(C)c(CC(=O)O)cc3ccc(F)cc23)cc1 [Example 1, {6-Fluoro-3-methyl-4-[4-(toluene-2-sulfonyl)-phenyl]-naphthalen-2-yl}-acetic acid] | 2.9 nM | 0.3 nM
Cc1c(CC(=O)O)cc2ccc(F)cc2c1-c1ccc(S(C)(=O)=O)cn1 [Example 58, [6-Fluoro-4-(5-methanesulfonyl-pyridin-2-yl)-3-methyl-naphthalen-2-yl]-acetic acid] | 139 nM | 1120 nM
Cc1ccccc1S(=O)(=O)Nc1ccc(-c2c(C)c(CC(=O)O)cc3ccc(Cl)cc23)cc1 [Example 63, {6-Chloro-3-methyl-4-[4-(toluene-2-sulfonylamino)-phenyl]-naphthalen-2-yl}-acetic acid] | 8.3 nM | 
Cc1c(CC(=O)O)cc2ccc(F)cc2c1-c1ccc(NS(=O)(=O)c2cc(C(F)(F)F)cc(C(F)(F)F)c2)cc1 [Example 60, {4-[4-(3,5-Bis-trifluoromethyl-benzenesulfonylamino)-phenyl]-6-fluoro-3-methyl-naphthalen-2-yl}-acetic acid] | 5.6 nM | 0.1 nM
Cc1c(CC(=O)O)cc2ccc(Cl)cc2c1-c1ccc(S(=O)(=O)N2CCOCC2)cc1 [Example 55, {6-Chloro-3-methyl-4-[4-(morpholino-4-sulfonyl)-phenyl]-naphthalen-2-yl}-acetic acid] | 2.4 nM | 
Cc1c(CC(=O)O)cc2ccc(Cl)cc2c1-c1ccc(S(=O)(=O)c2cc(Cl)cc(Cl)c2)cc1 [Example 26, {6-Chloro-4-[4-(3,5-dichloro-benzenesulfonyl)-phenyl]-3-methyl-naphthalen-2-yl}-acetic acid] |  | 22.1 nM
Cc1c(CC(=O)O)cc2ccc(Cl)cc2c1-c1ccc(S(=O)(=O)c2cccc(Cl)c2)cc1 [Example 16] |  | 8.1 nM
Cc1c(CC(=O)O)cc2ccc(F)cc2c1-c1ccc(S(=O)(=O)c2cc(F)cc(F)c2)cc1 [Example 14, {4-[4-(3,5-Difluoro-benzenesulfonyl)-phenyl]-6-fluoro-3-methyl-naphthalen-2-yl}-acetic acid] |  | 1.6 nM
Cc1c(CC(=O)O)cc2ccc(F)cc2c1-c1ccc(S(=O)(=O)NCCO)cc1 [Example 57, {6-Fluoro-4-[4-(2-hydroxy-ethylsulfamoyl)-phenyl]-3-methyl-naphthalen-2-yl}-acetic acid] |  | 6.1 nM
Cc1c(CC(=O)O)cc2ccc(F)cc2c1-c1ccc(S(C)(=O)=O)cc1 [Example 54, [6-Fluoro-4-(4-methansulfonyl-phenyl)-3-methyl-naphthalen-2-yl]-acetic acid] | 40 nM | 25 nM
Cc1c(CC(=O)O)cc2ccc(F)cc2c1-c1ccc(S(=O)(=O)c2ccc(Cl)cc2)cc1 [Example 4, {4-[4-(4-Chloro-benzenesulfonyl)-phenyl]-6-fluoro-3-methyl-naphthalen-2-yl}-acetic acid] |  | 3.2 nM
Cc1c(CC(=O)O)cc2ccc(Cl)cc2c1-c1ccc(S(=O)(=O)c2cc(C(F)(F)F)cc(C(F)(F)F)c2)cc1 [Example 25, {4-[4-(3,5-Bis-trifluoromethyl-benzenesulfonyl)-phenyl]-6-chloro-3-methyl-naphthalen-2-yl}-acetic acid] |  | 44.7 nM
